Several values for one entry are separate records, joined by “and”; a condition that tells them apart may be missing. Equal entries are not always repeated. Where two headings read alike, the source gives them in different places.
Tests used:
[1] = system: pig ascarid eggs; assay: microbe, parasite or virus in culture
[2] = system: Influenza A viruses; assay: virulicidal activity, virus titer in allantoic fluid by hemagglutination-inhibition
[3] = system: domestic flies; assay: insecticidal activity, laboratory test in gauze boxes; assay type: in vivo
Description: The compound obtained was used for preparing an insecticidal composition which was a 2% solution of the compound in a 5% aqueous solution of glucose. The test for activity of the insecticidal composition of the invention was conducted on domestic flies. Into gause 10x10 cm boxes /6 boxes/ 6-7-day flies were placed in the number of 50 individuals per box, which were of both sexes. The Petri dishes containing the insecticidal composition of the invention were put into 5 boxes. The observations for fly death were carried out in 48-72 hours. The Petri dish containing a 5% aqueous glucose solution were placed into a control box.

[4] = system: Meningopneumonia virus; parameters: species or system meningopneumonia pathogene/MP strain/
[5] = system: Hepatitis B virus; assay: virulicidal activity, HBsAg titer in blood serum
Description: table ratio instead of the test composition.

[6] = system: domestic flies; assay: insecticidal activity, full-scale (large-scale) test in premises; assay type: in vivo; details: 2% solution, 2-3 dishes per 20 m²; 72 hours
Description: The full-scale tests for activity of the insecticidal composition of the invention to domestic flies in habitable and industrial premises were carried out as follows. The Petri dishes containing a 2% solution of the insecticidal composition of the invention were located according 2-3-dishes per 20 m². The composition activity was evaluated by a direct estimation of killed insects in 72 hours or by using an adhesive tape to count the number of flies on its surface prior to and after conducting the test.

[7] = system: Staphylococcus aureus; assay: microbe, parasite or virus in culture; assay type: cell-based; details: Staphylococcus aureus
[8] = system: poliomyelitis virus
[9] = system: Escherichia coli; assay: microbe, parasite or virus in culture; assay type: cell-based; details: Escherichia coli
[10] = 24 h, read-out: Death of ascaridal eggs, % after 24 hours
[11] = 48 h, read-out: Death of ascaridal eggs, % after 48 hours

## O=[N+]([O-])c1ccc(C(O)C(CO)N=P(Nc2ccccc2)(Nc2ccccc2)Nc2ccccc2)cc1 (stereo not shown) [Example 29, trianilidophosphazo-1-para-nitrophenyl-1,3-propanediol]
[1]; [10]
  killing at 2 %: 97.6%
[1]; [11]
  killing at 2 %: 100%

## O=C(N[C@H](COP(=N[C@@H](CO)[C@@H](O)c1ccc([N+](=O)[O-])cc1)(OC[C@@H](NC(=O)C(Cl)Cl)[C@H](O)c1ccc([N+](=O)[O-])cc1)OC[C@@H](NC(=O)C(Cl)Cl)[C@H](O)c1ccc([N+](=O)[O-])cc1)[C@H](O)c1ccc([N+](=O)[O-])cc1)C(Cl)Cl [Example 27]
[2]; concentration 1.0 % by mass
  Virulicidal activity (%) under exposure 30 min: 100.0%
[2]; concentration 2.0 % by mass
  Virulicidal activity (%) under exposure 30 min: 100.0%
[1]; [10]
  killing at 2 %: 100%
[1]; [11]
  killing at 2 %: 100%
[3]; concentration 2.0 % by mass, after 48 hours
  Death of flies, % after 48 hours: 34.0%
[3]; concentration 2.0 % by mass, after 72 hours
  Death of flies, % after 72 hours: 62.0%

## CCCOP(=NC(CCl)C(O)c1ccc([N+](=O)[O-])cc1)(OCCC)OCCC (stereo not shown) [Example 5, tri-n-propoxyphosphazo-1-para-nitrophenyl-1-chloro-3-propanol]
[4]
  Virulicidal activity (%) under exposure 60 min: 50.0% and 75.0%
[5]; concentration 1.0 % by mass
  Virulicidal activity (%) under exposure 30 min: 12.5%
  Virulicidal activity (%) under exposure 60 min: 50.0%
[5]; concentration 2.0 % by mass
  Virulicidal activity (%) under exposure 30 min: 25,0%
  Virulicidal activity (%) under exposure 60 min: 75,0%
[2]; concentration 1.0 % by mass
  Virulicidal activity (%) under exposure 30 min: 12.5%
  Virulicidal activity (%) under exposure 60 min: 50.0%
[2]; concentration 2.0 % by mass
  Virulicidal activity (%) under exposure 30 min: 50.0%
  Virulicidal activity (%) under exposure 60 min: 75.0%
[1]; [10]
  killing at 2 %: 100%
[1]; [11]
  killing at 2 %: 100%
[6]
  Death of flies, % Tests in large-scale: 93.0%
[3]; 2% solution in 5% aqueous glucose, observed in 48-72 hours
  Death of flies, % Tests in laboratory: 94.5%

## O=S(=O)(NCl)c1ccccc1 [sodium N-chlorobenzenesulfamide, reference compound]
[4]
  Virulicidal activity (%) under exposure 60 min: 25.0% and 50.0%
[5]; concentration 1.0 % by mass
  Virulicidal activity (%) under exposure 30 min: 9.0%
  Virulicidal activity (%) under exposure 60 min: 25.0%
[5]; concentration 2.0 % by mass
  Virulicidal activity (%) under exposure 30 min: 12.5%
  Virulicidal activity (%) under exposure 60 min: 50.0%
[2]; concentration 1.0 % by mass
  Virulicidal activity (%) under exposure 30 min: 12.5% and 22.0%
  Virulicidal activity (%) under exposure 60 min: 25.0%
[2]; concentration 2.0 % by mass
  Virulicidal activity (%) under exposure 30 min: 25.0% and 25.1%
  Virulicidal activity (%) under exposure 60 min: 50.0%
[7]; read-out: Death of micro-organisms, % S.aureus
  killing at 0.2 %: 90%
[7]; read-out: Death of micro-organisms, % Staphylo-cocus aureus
  killing at 0.5 %: 100%
[8]; concentration 1.0 % by mass
  Virulicidal activity (%) to poliomyelitis virus under exposure of 30 min: 9.0%
  Virulicidal activity (%) to poliomyelitis virus under exposure of 60 min: 25.0%
[8]; concentration 2.0 % by mass
  Virulicidal activity (%) to poliomyelitis virus under exposure of 30 min: 12.5%
  Virulicidal activity (%) to poliomyelitis virus under exposure of 60 min: 50.0%
[9]; read-out: Death of micro-organisms, % E.coli
  killing at 0.2 %: 100%
[9]; read-out: Death of micro-organisms, % Escherichia coli
  killing at 0.5 %: 100%

## CNC(=S)S [carbathione, dihydrate, reference compound]
[1]; [10]
  killing at 2 %: 60%
[1]; [11]
  killing at 2 %: 80%
